{"source": "paper PMC12051620", "about": "“Molecular basis underlying the specificity of an antagonist AA92593 for mammalian melanopsins” (The Journal of Biological Chemistry, 2025)", "assay_type_in_all_cases": "cell-based", "key": {"human melanopsin": {"target": "T1, human melanopsin (Homo sapiens, UniProt Q9UHM6)", "T1 sequence (Q9UHM6 1-384 limits assumed)": "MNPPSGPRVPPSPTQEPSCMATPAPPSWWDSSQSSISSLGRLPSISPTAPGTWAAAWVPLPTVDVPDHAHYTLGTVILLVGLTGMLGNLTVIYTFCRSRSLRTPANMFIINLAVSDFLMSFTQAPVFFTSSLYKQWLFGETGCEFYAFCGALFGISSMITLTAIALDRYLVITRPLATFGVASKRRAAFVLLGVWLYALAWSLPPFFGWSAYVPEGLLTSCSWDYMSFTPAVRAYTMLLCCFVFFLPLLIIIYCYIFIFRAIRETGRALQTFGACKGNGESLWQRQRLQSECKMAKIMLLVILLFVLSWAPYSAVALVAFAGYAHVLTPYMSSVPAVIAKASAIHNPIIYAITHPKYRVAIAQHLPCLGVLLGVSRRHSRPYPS", "assay": "GloSensor cAMP assay via endogenous G proteins", "design": "the C-terminal amino acid residues (94, 140, 200, 214, 296, and 308 residues); expressed in transfected cells; host or cells: COS-1", "conditions": "COS-1 cells, no exogenous G protein"}, "[1]": {"system": "mouse melanopsin S269^6.52A mutant", "assay": "GsX GloSensor assay with Gsα/q11", "conditions": "16.7 μM AA92593, COS-1 cells"}, "[2]": {"target": "T2, human melanopsin F94^2.61C mutant (Homo sapiens, UniProt Q9UHM6, F127C)", "T2 construct": "the C-terminal amino acid residues (94, 140, 200, 214, 296, and 308 residues); expressed in transfected cells; host or cells: COS-1", "T2 sequence (Q9UHM6 1-384 F127C limits assumed)": "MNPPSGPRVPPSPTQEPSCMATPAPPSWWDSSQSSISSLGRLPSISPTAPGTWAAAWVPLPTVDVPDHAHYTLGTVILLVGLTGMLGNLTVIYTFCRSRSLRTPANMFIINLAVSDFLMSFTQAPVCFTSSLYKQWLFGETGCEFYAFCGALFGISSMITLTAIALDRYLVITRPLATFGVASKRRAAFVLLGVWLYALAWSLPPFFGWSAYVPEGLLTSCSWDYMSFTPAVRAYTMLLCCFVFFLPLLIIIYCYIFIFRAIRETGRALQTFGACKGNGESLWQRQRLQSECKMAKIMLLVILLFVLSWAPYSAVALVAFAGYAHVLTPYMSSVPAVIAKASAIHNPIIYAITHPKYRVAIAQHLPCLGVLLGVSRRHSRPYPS", "assay": "GsX GloSensor assay with Gsα/q11", "conditions": "16.7 μM AA92593, COS-1 cells, difference not statistically significant", "description": "(§1) We substituted the residues Phe-94^2.61, Ser-188^ECL2, and Ser-269^6.52 in human melanopsin (Fig. 2, A and B) and examined the inhibitory effect of AA92593 on these mutants. Substitution of these amino acid residues with the corresponding amino acids in non-mammalian-type melanopsins (F94^2.61C, S188^ECL2T, and S269^6.52A) reduced the inhibitory effect of AA92593 compared to its effect on WT (Fig. 2, C–E). […] The antagonistic effect of AA92593 was reduced by ∼21% and ∼24% in the S188^ECL2T and S269^6.52A mutants, respectively (Fig. 2, D, E, and G). […] The volume change in side chain would affect arrangement of the amino acid residues around AA92593 (see below).\n(§2) For GloSensor assay, opsins, GloSensor assay sensor (coded by pGlo-22F), and NanoBiT-tagged G proteins were transiently expressed in COS-1 cells (kindly provided from Dr David Farrens, Oregon Health and Science University) using PEI as described previously ([24], [52]). For the GsX GloSensor assay ([12], [13]), each well of a 96-well assay plate (Corning) was transfected with 50 ng opsin plasmid, 16.7 ng G protein plasmid, 50 ng pGlo-22F plasmid (Promega), and 500 ng PEI in 25 μl Opti-mem and 75 μl Dulbecco's modified Eagle's medium (D-MEM). […] For GFP-fluorescence microscopy, a 35-mm cell culture dish (IWAKI) was transfected with 2 μg melanopsin-GFP plasmid and 8 μg PEI in 400 μl Opti-mem and 1.2 ml D-MEM. […]\n(§3) The transfected COS-1 cells were incubated at 37 °C, 5% CO2 for 2 days, and the medium was aspirated and exchanged with 50 μl of HBSS (145 mM NaCl, 10 mM D-glucose, 5 mM KCl, 1 mM MgCl2, 1.7 mM CaCl2, 1.5 mM NaHCO3, 10 mM Hepes, pH 7.4), containing 33.3, 20, 10, 2, 0.2, 0.02, 0.002, or 0 μM AA92593, 0.5% dimetyl sulfoxide (DMSO), and 4% (vol/vol) GloSensor cAMP reagent stock solution. […] Then, the cells were incubated at room temperature for 1 h, and luminescence changes were monitored. After incubation of the cells with AA92593, luminescence measurement was interrupted, the plate was ejected, and the cells were added with 50 μl of HBSS containing 0.2 μM 9-cis-retinal. […] Luminescence was measured using GM-2000 or GM-3510 microplate reader (Promega). Luminescence level of each well was measured every 30 s with integration time of 0.6 to 0.9 s. To illuminate opsins, luminescence measurement was interrupted, the plate was ejected, and the plate was illuminated by white light with CN-160 LED video light (light intensity, ∼9 mW/cm^2) (NEEWER). […] After illumination, luminescence measurement was resumed. The measured luminescence levels were normalized to the level at the starting point (time = 0 min). […]"}, "[3]": {"target": "T3, human melanopsin S188^ECL2A mutant (Homo sapiens, UniProt Q9UHM6, S222A)", "T3 construct": "expressed in transfected cells; host or cells: COS-1", "T3 sequence (Q9UHM6 1-384 S222A limits assumed)": "as the sequence (Q9UHM6 1-384 F127C limits assumed) above, with C127F, S222A counted along it", "assay": "GsX GloSensor assay with Gsα/q11", "conditions": "16.7 μM AA92593, COS-1 cells", "description": "as §1, §2, §3"}, "[4]": {"system": "human melanopsin S188^ECL2T mutant", "assay": "GsX GloSensor assay with Gsα/q11", "conditions": "16.7 μM AA92593, COS-1 cells", "description": "as §1, §2, §3"}, "[5]": {"system": "human melanopsin S269^6.52A mutant", "assay": "GsX GloSensor assay with Gsα/q11", "conditions": "16.7 μM AA92593, COS-1 cells", "description": "as §1, §2, §3"}}}
{"smiles": "COc1ccc(S(=O)(=O)N2CCCCC2)cc1C", "note": "[AA92593]", "values": [{"measurement": "effect on endogenous G protein-induced cAMP responses", "setting": "human melanopsin", "value": "inhibited"}, {"measurement": "reduction of the antagonistic effect of AA92593 vs WT", "setting": "[1]", "value": "~25", "unit": "%"}, {"measurement": "inhibitory effect of AA92593 compared to WT", "setting": "[2]", "value": "consistently weaker"}, {"measurement": "change in the effect of AA92593 vs WT", "setting": "[3]", "value": "did not induce a significant change"}, {"measurement": "reduction of the antagonistic effect of AA92593 vs WT", "setting": "[4]", "value": "~21", "unit": "%"}, {"measurement": "reduction of the antagonistic effect of AA92593 vs WT", "setting": "[5]", "value": "~24", "unit": "%"}]}
